A word on the EC50: it is the midpoint of the concentration-response curve.

The assay concerns the target T1, GPR40 of human origin (Homo sapiens, UniProt O14842).
T1 construct: expressed in transfected cells
Kind of assay: Agonist action on GPR40 of human origin (intracellular Ca2+ change). The format is cell-based. Conditions: CHO cell strain stably expressing GPR40 of human origin; change in Ca2+ concentration, fluorescent calcium indicator. A digest of the protocol:
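CHO cells stably expressing human GPR40, cultured overnight, then loaded 1 h with Calcium 4 dye plus probenecid in HEPES-buffered HBSS. Compound added in 20 mM HEPES-HBSS; intracellular Ca2+ change read by fluorescence, EC50 from dose-response of fluorescence change.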

T1 sequence (O14842 whole entry): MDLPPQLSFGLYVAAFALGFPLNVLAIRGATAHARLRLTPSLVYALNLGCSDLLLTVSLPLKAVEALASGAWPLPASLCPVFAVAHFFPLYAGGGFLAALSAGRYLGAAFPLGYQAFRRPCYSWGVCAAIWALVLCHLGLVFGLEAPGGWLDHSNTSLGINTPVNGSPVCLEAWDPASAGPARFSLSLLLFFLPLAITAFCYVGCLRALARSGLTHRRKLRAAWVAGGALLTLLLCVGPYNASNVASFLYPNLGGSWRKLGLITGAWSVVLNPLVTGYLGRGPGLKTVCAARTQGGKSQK

For `[O-][s+]1nc(O)cc1-c1ccc(O[C@@H]2CCc3c(Oc4ccc(OC(F)(F)F)cc4)cccc32)cc1` (stereo partly drawn) [Example 103, 3-hydroxy-5-(4-(((R)-4-(4-(trifluoromethoxy)phenoxy)-2,3-dihydro-1H-inden-1-yl)oxy)phenyl)isothiazole 1-oxide], the EC50 is under 0.3 µM.

For the compound `[O-][s+]1nc(O)cc1-c1ccc(O[C@@H]2CCc3c(-c4ccc(F)cc4OCc4ccccc4)cccc32)cc1` (stereo partly drawn) [Example 61, 5-(4-(((R)-4-(2-benzyloxy-4-fluorophenyl)-2,3-dihydro-1H-inden-1-yl)oxy)phenyl)-3-hydroxyisothiazole 1-oxide], the EC50 fell in the range of 0.3 to 3 µM.

Regarding `[O-][s+]1nc(O)cc1-c1ccc(O[C@@H]2CCc3c(-c4ccccc4OCc4ccccc4)cccc32)cc1` (stereo partly drawn) [Example 42, 5-(4-(((R)-4-(2-benzyloxyphenyl)-2,3-dihydro-1H-inden-1-yl)oxy)phenyl)-3-hydroxyisothiazole 1-oxide], the EC50 was under 0.3 µM.

For `COc1cc(F)ccc1-c1cccc2c1CC[C@H]2Oc1ccc(-c2cc(O)n[s+]2[O-])cc1` (stereo partly drawn) [Example 51, 5-(4-(((R)-4-(4-fluoro-2-methoxyphenyl)-2,3-dihydro-1H-inden-1-yl)oxy)phenyl)-3-hydroxyisothiazole 1-oxide], the EC50 is under 0.3 µM.

As for `[O-][s+]1nc(O)cc1-c1ccc(OC2COc3c(Oc4ccccc4)cccc32)cc1` (single isomer, unassigned) [Example 145-b, 3-hydroxy-5-(4-((7-phenoxy-2,3-dihydrobenzofuran-3-yl)oxy)phenyl)isothiazole 1-oxide], the EC50 fell in the range of 0.3 to 3 µM.

`CC(C)(O)CCOc1cccc(Oc2cccc3c2CC[C@H]3Oc2ccc(-c3cc(O)n[s+]3[O-])cc2)c1` (stereo partly drawn) [Example 112, 3-hydroxy-5-(4-(((R)-4-(3-(3-hydroxy-3-methylbutoxy)phenoxy)-2,3-dihydro-1H-inden-1-yl)oxy)phenyl)isothiazole 1-oxide]: the concentration giving a half-maximal response (EC50) was under 0.3 µM.

On to `[O-][s+]1nc(O)cc1-c1ccc(O[C@@H]2CCc3c(-c4ccccc4Cl)cccc32)cc1` (stereo partly drawn) [Example 10, 5-(4-(((R)-4-(2-chlorophenyl)-2,3-dihydro-1H-inden-1-yl)oxy)phenyl)-3-hydroxyisothiazole 1-oxide], for which the EC50 is under 0.3 µM.

As for `CCOc1ncccc1-c1cccc2c1CC[C@H]2Oc1ccc(-c2cc(O)n[s+]2[O-])cc1` (stereo partly drawn) [Example 19, 5-(4-(((R)-4-(2-ethoxypyridin-3-yl)-2,3-dihydro-1H-inden-1-yl)oxy)phenyl)-3-hydroxyisothiazole 1-oxide], the EC50 is under 0.3 µM.

For `Cc1cccc(Oc2cccc3c2CC[C@H]3Oc2ccc(-c3cc(O)n[s+]3[O-])cc2)n1` (stereo partly drawn) [Example 130, 3-hydroxy-5-(4-(((R)-4-((6-methylpyridin-2-yl)oxy)-2,3-dihydro-1H-inden-1-yl)oxy)phenyl)isothiazole 1-oxide], the EC50 is under 0.3 µM.

For the compound `COc1ccc(Cl)c(-c2cccc3c2CC[C@H]3Oc2ccc(-c3cc(O)n[s+]3[O-])cc2)c1` (stereo partly drawn) [Example 52, 5-(4-(((R)-4-(2-chloro-5-methoxyphenyl)-2,3-dihydro-1H-inden-1-yl)oxy)phenyl)-3-hydroxyisothiazole 1-oxide], the EC50 was under 0.3 µM.

Turning to `NC(=O)c1cccc(Oc2cccc3c2CC[C@H]3Oc2ccc(-c3cc(O)n[s+]3[O-])cc2)c1` (stereo partly drawn) [Example 128, 3-(((1R)-1-(4-(3-hydroxy-1-oxidoisothiazol-5-yl)phenoxy)-2,3-dihydro-1H-inden-4-yl)oxy)benzamide], the EC50 was under 0.3 µM.

As for `NC(=O)c1ccc(-c2cccc3c2CC[C@H]3Oc2ccc(-c3cc(O)n[s+]3[O-])cc2)cn1` (stereo partly drawn) [Example 77, 5-((1R)-1-(4-(3-hydroxy-1-oxidoisothiazole-5-yl)phenoxy)-2,3-dihydro-1H-inden-4-yl)picolinamide], the EC50 was under 0.3 µM.

In the case of `Cc1ccc(-c2cccc3c2CC[C@H]3Oc2ccc(-c3cc(O)n[s+]3[O-])cc2)c2ccccc12` (stereo partly drawn) [Example 50, 5-(4-(((R)-4-(4-methylnaphthalen-1-yl)-2,3-dihydro-1H-inden-1-yl)oxy)phenyl)-3-hydroxyisothiazole 1-oxide], the EC50 lay in the range of 0.3 to 3 µM.

For the compound `[O-][s+]1nc(O)cc1-c1ccc(OCc2ccc(CN3CCC4(C=Cc5ccccc54)CC3)cc2)cc1` (centres unmarked) [Example 123, 3-hydroxy-5-(4-((4-(spiro[inden-1,4′-piperidin]-1′-ylmethyl)benzyl)oxy)phenyl)isothiazole 1-oxide], the EC50 lay within 0.3 to 3 µM.

Turning to `[O-][s+]1nc(O)cc1-c1ccc(OC2COc3c(Oc4ccccc4)cccc32)cc1` (single isomer, unassigned) [Example 145-a, 3-hydroxy-5-(4-((7-phenoxy-2,3-dihydrobenzofuran-3-yl)oxy)phenyl)isothiazole 1-oxide], the EC50 was under 0.3 µM.

As for `[O-][s+]1nc(O)cc1-c1ccc(O[C@@H]2CCc3c(Oc4cccc(CCO)c4)cccc32)cc1` (stereo partly drawn) [Example 89, 3-hydroxy-5-(4-(((R)-4-(3-(2-hydroxyethyl)phenoxy)-2,3-dihydro-1H-inden-1-yl)oxy)phenyl)isothiazole 1-oxide], the EC50 was under 0.3 µM.

Turning to `CS(=O)(=O)CCCOc1ccc(Oc2cccc3c2CC[C@H]3Oc2ccc(-c3cc(O)n[s+]3[O-])cc2)cn1` (stereo partly drawn) [Example 116, 3-hydroxy-5-(4-(((R)-4-((6-(3-(methylsulfonyl)propoxy)pyridin-3-yl)oxy)-2,3-dihydro-1H-inden-1-yl)oxy)phenyl)isothiazole 1-oxide], the EC50 is under 0.3 µM.

Consider `[O-][s+]1nc(O)cc1-c1ccc(O[C@@H]2CCc3c(-c4ccsc4)cccc32)cc1` (stereo partly drawn) [Example 82, 3-hydroxy-5-(4-(((R)-4-(thiophen-3-yl)-2,3-dihydro-1H-inden-1-yl)oxy)phenyl)isothiazole 1-oxide], for which the EC50 is under 0.3 µM.

Regarding `Cc1cccc(C)c1Oc1cccc2c1CC[C@H]2Oc1ccc(-c2cc(O)n[s+]2[O-])cc1` (stereo partly drawn) [Example 96, 5-(4-(((R)-4-(2,6-dimethylphenoxy)-2,3-dihydro-1H-inden-1-yl)oxy)phenyl)-3-hydroxyisothiazole 1-oxide], the EC50 was under 0.3 µM.

As to `[O-][s+]1nc(O)cc1-c1ccc(O[C@@H]2CCc3c(-c4cccc(F)c4F)cccc32)cc1` (stereo partly drawn) [Example 17, 5-(4-(((R)-4-(2,3-difluorophenyl)-2,3-dihydro-1H-inden-1-yl)oxy)phenyl)-3-hydroxyisothiazole 1-oxide], the EC50 is under 0.3 µM.

As to `[O-][s+]1nc(O)cc1-c1ccc(O[C@@H]2CCc3c(-c4ccc(OCC5CC5)nc4)cccc32)cc1` (stereo partly drawn) [Example 78, 5-(4-(((R)-4-(6-(cyclopropylmethoxy)pyridin-3-yl)-2,3-dihydro-1H-inden-1-yl)oxy)phenyl)-3-hydroxyisothiazole 1-oxide], the EC50 was under 0.3 µM.

Consider `COc1cccc(Oc2cccc3c2CC[C@H]3Oc2ccc(-c3cc(O)n[s+]3[O-])cc2)n1` (stereo partly drawn) [Example 149, 3-hydroxy-5-(4-(((R)-4-((6-methoxypyridin-2-yl)oxy)-2,3-dihydro-1H-inden-1-yl)oxy)phenyl)isothiazole 1-oxide], for which the EC50 is under 0.3 µM.

As to `CS(=O)(=O)c1ccccc1-c1cccc2c1CC[C@H]2Oc1ccc(-c2cc(O)n[s+]2[O-])cc1` (stereo partly drawn) [Example 70, 5-(4-(((R)-4-(2-(methylsulfonyl)phenyl)-2,3-dihydro-1H-inden-1-yl)oxy)phenyl)-3-hydroxyisothiazole 1-oxide], the EC50 was under 0.3 µM.

(Values after US8629102B2, “3-hydroxyisothiazole 1-oxide derivatives” (Mochida Pharmaceutical Co., Ltd., priority 2011, dated 2014).)
